Results as given in paper PMC6548335 (ACS infectious diseases, 2019).
“Also recorded” adds a separate entry of the source.

How the values were obtained:
[1] = system: malate dehydrogenase (MDH); test: Malate dehydrogenase; assay type: biochemical; conditions: presence and absence of Triton X-100
BHK-21 cells = test: Cytotoxicity assay; assay type: cell-based, baby hamster; conditions: for CC5: 50% loss of BHK-21 cell viability; for CC50 relative to antiviral IC90: BHK-21 CC50 vs DENV2 IC90
[2] = Hepatic microsomal stability; assay type: in vitro ADME; conditions: mouse, liver microsomes, pH 7.4
DENV2 NGC = test: microbe, parasite or virus in culture; assay type: cell-based, dengue virus 2 (BHK-21 cells); conditions: Dengue virus, DENV2, BHK-21, read-out: IC90 (μM) [DENV2 NGC)
DENV2 S221 [3] = test: Viral infectivity assay, mouse-adapted DENV2 S221; conditions: Dengue virus, DENV2, BHK-21, read-out: antiviral IC90, DENV2 S221
[4] = Pharmacokinetic study in mice; conditions: female, C57BL/6, mouse, intraperitoneal, 20 mg/kg
DENV2 S221 [5] = test: Multi-cycle infection, DENV2 S221; conditions: 5 μM, MOI 0.01, supernatants at 48 and 72 hours post-infection
[6] = target: soluble, prefusion DENV2 envelope protein (sE2) (Dengue virus type 2, UniProt P14340); test: Biolayer interferometry binding to sE2; parameters: species or system dengue virus 2
Plasma-protein binding = assay type: in vitro ADME
[7] = system: E-mediated membrane fusion of DENV2, strain NGC; conditions: 0, 10, 50 μM compound, pH 5.3, Western blot

In the case of N#C/C(=N\Nc1ccc(N2CCOCC2)c(C(F)(F)F)c1)C(=O)c1cc2ccccc2o1 [JBJ-01-162-03, (E)-2-(benzofuran-2-yl)-N-(4-morpholino-3-(trifluoromethyl)phenyl)-2-oxoacetohydrazonoyl cyanide], the “detergent-sensitive (non-specific) inhibition of MDH” value [1] is reported as “detergent-sensitive inhibition of malate dehydrogenase comparable to that of 3-110-22”, the “CC5” value (BHK-21 cells) is reported as 32.5 ± 2.2 µM and the “CC50 relative to antiviral IC90” value (BHK-21 cells) is reported as ≥ 20 fold. The half-life at 1 μM [2] was > 120 min and the IC90 (DENV2 NGC) was 1.6 ± 0.7 µM.

For Cc1cn(-c2cc(N/N=C(\C#N)C(=O)c3cc4ccccc4o3)cc(C(F)(F)F)c2)cn1 [JBJ-01-162-04, (E)-2-(benzofuran-2-yl)-N-(3-(4-methyl-1H-imidazol-1-yl)-5-(trifluoromethyl)phenyl)-2-oxoacetohydrazonoyl cyanide], the “detergent-sensitive (non-specific) inhibition of MDH” value [1] was “lacks this non-specific activity; also recorded: Slight inhibition of MDH”, the IC90 (DENV2 S221 [3]) was 1400 ± 600 nM and the concentration at 4 h ([4]; liver) was 37.2 µM. It also gave a concentration at 12 h ([4]; liver) of 13 µM, a concentration at 4 h ([4]; plasma) of 75.8 µM and a concentration at 12 h ([4]; plasma) of 2.9 µM. The “CC50 relative to antiviral IC90” value (BHK-21 cells) was ≥ 20 fold, the “reduction of viral yield in multi-cycle infection” value (DENV2 S221 [5]) was “over 95%” and the half-life at 1 μM [2] was 64.8 min. The Kd [6] was 1400 ± 500 nM, the fraction unbound (Plasma-protein binding) was < 0.001 and the “inhibition of E-mediated fusion (protection of core from trypsin digestion), DENV2” value [7] was “inhibits E-mediated fusion of DENV2 in a concentration-dependent manner; also recorded: inhibits viral fusion in the liposome-based assay in a concentration-dependent manner”. The IC90 (DENV2 NGC) was 1.5 ± 0.4 µM.

CCN1CCN(Cc2ccc(N/N=C(\C#N)C(=O)c3cc4ccccc4o3)cc2C(F)(F)F)CC1 [JBJ-01-162-05, (E)-2-(benzofuran-2-yl)-N-(4-((4-ethylpiperazin-1-yl)methyl)-3-(trifluoromethyl)phenyl)-2-oxoacetohydrazonoyl cyanide] gave a half-life at 1 μM [2] of 29.9 min.

For CN1CCN(c2cc(N/N=C(\C#N)C(=O)c3cc4ccccc4o3)cc(C(F)(F)F)c2)CC1 [JBJ-01-162-02, (E)-2-(benzofuran-2-yl)-N-(3-(4-methylpiperazin-1-yl)-5-(trifluoromethyl)phenyl)-2-oxoacetohydrazonoyl cyanide], the “detergent-sensitive (non-specific) inhibition of MDH” value [1] was “detergent-sensitive inhibition of malate dehydrogenase comparable to that of 3-110-22”, the “CC5” value (BHK-21 cells) was 24.5 ± 7.2 µM and the half-life at 1 μM [2] was 73 min. It also gave an IC90 (DENV2 NGC) of 9 ± 2.8 µM.

Molecule CN1CCN(c2ccc(N/N=C(\C#N)C(=O)c3cc4ccccc4o3)cc2C(F)(F)F)CC1 [JBJ-01-162-01, (E)-2-(benzofuran-2-yl)-N-(4-(4-methylpiperazin-1-yl)-3-(trifluoromethyl)phenyl)-2-oxoacetohydrazonoyl cyanide] has a half-life at 1 μM [2] of 35.1 min.

In the case of N#C/C(=N\Nc1cc(F)cc(C(F)(F)F)c1)C(=O)c1cc2ccccc2o1 [JBJ-03-019-02, (E)-2-(benzofuran-2-yl)-N-(3-fluoro-5-(trifluoromethyl)phenyl)-2-oxoacetohydrazonoyl cyanide], the half-life at 1 μM [2] is reported as 8.6 min.

In the case of N#C/C(=N\Nc1ccc(F)c(C(F)(F)F)c1)C(=O)c1cc2ccccc2o1 [JBJ-03-019-01, (E)-2-(benzofuran-2-yl)-N-(4-fluoro-3-(trifluoromethyl)phenyl)-2-oxoacetohydrazonoyl cyanide], the half-life at 1 μM [2] is reported as 7.6 min.
